Activity calls are given as the source filed them. How the calls were made is not given here.
Tests used:
Test in all cases: antibacterial and antifungal growth inhibition panel, profiling panel, Idler compounds, first plate, PMBN-permeabilized strains (AID 2061108)
Parameters in all cases: haemolysis: dose or concentration left out as unconfirmed
[1] = test system: A. baumannii ATCC 17978 + PMBN growth inhibition, 100 uM; conditions: A. baumannii plus PMBN growth inhibition, 100 µM; stronger effect = higher value
[2] = test system: M. avium growth inhibition, 10 uM; conditions: M. avium growth inhibition, 10 µM
[3] = test system: E. coli NCTC 12923 + PMBN growth inhibition, 100 uM; conditions: S. aureus ATCC 9144 growth inhibition; measured here: E. coli plus PMBN; at 100 µM; stronger effect = higher value
[4] = test system: red blood cell haemolysis; conditions: stronger effect = higher value; dose or concentration not given here
[5] = test system: S. aureus ATCC 9144 growth inhibition, 100 uM; conditions: S. aureus ATCC 9144 growth inhibition; at 100 µM; stronger effect = higher value
[6] = test system: M. abscessus growth inhibition, 10 uM; conditions: S. aureus ATCC 9144 growth inhibition; measured here: M. abscessus; at 10 µM
[7] = test system: A. baumannii ATCC 17978 growth inhibition, 100 uM; conditions: S. aureus ATCC 9144 growth inhibition; measured here: A. baumannii ATCC 17978; at 100 µM; stronger effect = higher value
[8] = test system: C. albicans NCPF 3281 growth inhibition, 100 uM; conditions: S. aureus ATCC 9144 growth inhibition; measured here: C. albicans NCPF 3281; at 100 µM; stronger effect = higher value
[9] = test system: E. coli NCTC 12923 growth inhibition, 100 uM; conditions: E. coli NCTC 12923 growth inhibition, 100 µM; stronger effect = higher value

Row | Compound | inhibition [1] | inhibition [2] | inhibition [3] | haemolysis [4] | inhibition [5] | inhibition [6] | inhibition [7] | inhibition [8] | inhibition [9]
1 | CC(=O)NCCC(=O)NNC(=O)c1cc(-c2ccccn2)nc2ccccc12 | 4.14% | -0.099% | -9.76% | 0.542% | -6.67% (inactive) | -0.278% | -4.58% | -14.4% | -5.54%
2 | O=C(Nc1ccc(Oc2ccccc2)cc1)c1ccc(-c2nn[nH]n2)nc1 | 15.2% | -0.673% | 10.6% | -0.153% | 15% (inactive) | -0.682% | -1.31% | -10.3% | 0.676%
3 | O=C(O)c1cc(-c2ccco2)on1 | 19.4% | -0.19% | 3.29% | 0.22% | 20.4% (inactive) | -0.23% | -3.73% | -23.7% | 1.89%
4 | NC(=O)C1CCN(c2nc(OCc3ccc(F)nc3)nc(N3CCCOCC3)n2)CC1 | 9.86% | 0.922% | -2.07% | 1.34% | 18.4% (inactive) | -0.107% | -0.843% | -78.3% | -2.97%
5 | O=C(N/N=C/c1ccc2cccc(O)c2n1)c1ccncc1 | 37.1% | -0.55% | -1.73% | 0.565% | 23.3% (inactive) | -0.775% | 13.7% | -33.7% | 8.65%
6 | CC(C)c1cc(Nc2nc(N[C@@H](CO)C3CCCCC3)nc3[nH]ncc23)n[nH]1 | 57.6% | 0.54% | 99.1% | 1.61% | -3.86% | -0.415% | -4.22% | -64% | -18.2%
7 | Cc1ccc(N2CN(CC(=O)Nc3ccccc3Cl)S(=O)(=O)c3cccnc32)cc1 | 4.43% | -1.53% | -25.9% | 0.453% | -17.7% (inactive) | 0.131% | -6.75% | -124% | -45.3%
8 | COc1cc2nc(N3CCC(N(C)C)C3)nc(N3CCN(C(=O)OC(C)(C)C)CC3)c2cc1OC (stereo not drawn) | 29.6% | 3.78% | 10.1% | 0.172% | 7.89% (inactive) | -0.0588% | -7.35% | -73.8% | 2.57%
9 | Cc1cccc(C)c1OCC(O)CSc1ccccn1 (stereo not drawn) | 51.9% | -0.789% | 59.6% | 0.214% | -7.89% (inactive) | -0.104% | 11.9% | -34.4% | -44.2%
10 | CC(C)NC(=O)Nc1cccc(C(=O)NC(C)c2cccc(Br)c2)c1 (stereo not drawn) | 34.3% | -5.32% | 28.6% | -0.0024% | 3.67% (inactive) | -1.08% | 4.29% | 26.3% | -0.541%
11 | O=C(Nc1ccc(Oc2ccccc2)cc1)c1cccc(-c2nn[nH]n2)c1 | 18.8% | 0.254% | 5.93% | 1.82% | 9.5% (inactive) | -0.704% | -3.57% | -19% | -9.59%
12 | N#Cc1cc(-c2cccc(Cl)c2)no1 | 26.6% | 0.349% | 1.71% | 6.05% | 15.6% (inactive) | 0.0599% | -0.723% | -135% | -0.811%
13 | O=C(Nc1cccc(C(F)(F)F)c1)C(Cl)C(=O)c1ccccc1 (stereo not drawn) | 99.6% | 1.13% | 100% | 0.0983% | 101% | 0.0425% | 46.6% | 101% | 34.5%
14 | O=C(NC1(c2ccc(Br)cc2)COC1)c1ccc(N2CCOCC2)cc1 | 17.5% | -0.734% | 4.32% | 0.177% | 5.33% (inactive) | -1% | 1.43% | -56.4% | -5.27%
15 | O=c1[nH]c(=O)c2cc(S(=O)(=O)Nc3cc(F)c(N4CCC(N5CCOCC5)CC4)c(F)c3)ccc2[nH]1 | 19.7% | 0.48% | 1.59% | 0.307% | 14.7% (inactive) | -0.0703% | 4.34% | -44.5% | -6.35%
16 | O=C(NC1(c2ccc(Cl)cc2)COC1)c1ccc(N2CCCCC2)cc1 | 13.9% | 0.252% | -14% | 0.302% | 4.21% (inactive) | -0.149% | -22.2% | -54.3% | -30%
17 | Nc1ncnc2cc(-c3cccc(S(=O)(=O)NC(=O)C(N)Cc4ccccc4)c3)sc12 (stereo not drawn) | 3.19% | 11.7% | -18.8% | 0.0594% | -16.5% (inactive) | -0.63% | 1.55% | -49.9% | -49.3%
18 | COc1ccc2c(c1)nc(-c1c[nH]c3cc(N4CCOCC4)ccc13)c1[nH]ccc12 | 95.9% | 1.53% | 98.5% | 0.675% | 101% | 0.186% | 53.1% | -104% | 14.1%
19 | CC1=CC(=O)C=C(C)C1=NOS(=O)(=O)c1ccc(Cl)cc1 | -8.84% | -0.499% | -20.5% | 0.0834% | 98.2% | -0.716% | -15.4% | -1.74% | -42.6%
20 | O=S(=O)(Nc1ccc(Oc2ccccc2)cc1)c1ccc(-c2nn[nH]n2)cc1 | 34.1% | 0.208% | 21.7% | 1.69% | 70% (inactive) | -0.359% | -18.3% | -30.5% | 0.135%
21 | COc1cc2nc(Nc3cc(C)[nH]n3)nc(Nc3cc(C)[nH]n3)c2cc1OC | 19.6% | 1.15% | 49.1% | 0.208% | 37.5% | 0.769% | 18.8% | 84.2% | 12.7%
22 | Cc1ncsc1CCCN(C)c1cnc(S(=O)(=O)F)c(Br)c1 | 21.9% | 0.0507% | 0.37% | 0.616% | 16.7% (inactive) | -0.937% | -2.86% | -94.3% | 1.49%
23 | O=S(=O)(NC1(Cc2ccc(Cl)cc2Cl)CCC1)c1ccc(-c2nn[nH]n2)cc1 | 65.8% | 0.393% | 22.2% | -0.271% | 17% (inactive) | -1.11% | 22.7% | -103% | 0.135%
24 | O=C(Nc1ccc(OC2CCCCC2)cc1)c1ccc(-c2nn[nH]n2)cc1 | 17.1% | -0.389% | 6.17% | 0.0779% | 7.17% (inactive) | -1.07% | -15.8% | 6.07% | 1.08%
25 | CC(C)CC(N)C(=O)NS(=O)(=O)c1cccc(-c2cc3ncnc(N)c3s2)c1 (stereo not drawn) | -8.7% | 12% | -22.3% | -0.408% | -17.7% (inactive) | -0.687% | -8.69% | 43.5% | -84.3%
26 | O=S(=O)(c1ccc2nncn2c1)N(Cc1cccc(F)c1)c1ccc2c(c1)OCCO2 | 11.3% | -0.711% | -20.9% | 8.17% | -8.6% (inactive) | -0.196% | -2.17% | -82.4% | -55.8%
27 | CCS(=O)(=O)c1ccc(CNc2nc3ccccc3cc2C#N)s1 | 28.4% | -0.121% | -0.61% | 0.247% | 22.3% (inactive) | 0.173% | -4.82% | -73.7% | -13.4%
